Measurements: paper PMC6540015, “New Quinolone-Based Thiosemicarbazones Showing Activity Against Plasmodium falciparum and Mycobacterium tuberculosis” (Molecules, 2019)
Values after ≈ are worked out from the molar mass of the structure shown. Read-outs that look alike come from different tables or passages of the source.

Assays:
[1] = system: 3D7 strain of Plasmodium falciparum; assay: In vitro anti-plasmodial pLDH assay; type: cell-based
[2] = system: M. tuberculosis H37Rv strain; assay: microbe, parasite or virus in culture; type: cell-based; settings: Mycobacterium tuberculosis, concentration inhibiting 90% of bacterial population; for MIC: read-out: MIC90 H37Rv
[3] = Plasmodium falciparum, chloroquine sensitive strain 3D7 of P. falciparum, 48 h, na = not active, read-out: IC50 Pf 3D7
[4] = Plasmodium falciparum, 3D7, 48 h, read-out: IC50 Pf 3D7, chloroquine sensitive strain 3D7 of P. falciparum, na = not active

Structure (SMILES) | IC50 [1, 3] | MIC90 [2] | MIC [2] | melting point | IC50 Pf 3D7 ([1]; chloroquine sensitive strain 3D7 of P. falciparum, 48 h, na = not active) | IC50 [1, 4] | IC50 ([1]; read-out: IC50 Pf 3D7, chloroquine sensitive strain 3D7 of P. falciparum, 48 h, na = not active)
CCN(CC)CCCC(C)Nc1ccnc2cc(Cl)ccc12 (stereo not drawn) [CQ, Chloroquine, reference compound] | 0.012 µM |  |  |  |  |  | 
CCOC(=O)c1c[nH]c2ccc(C(C)=O)cc2c1=O [Compound 8] | 4 µM |  |  |  |  |  | 
CCn1cc(C(=O)NCCCn2ccnc2)c(=O)c2cc(/C(C)=N/NC(N)=S)ccc21 [Compound 11, (E)-N-(3-(1H-imidazol-1-yl)propyl)-6-(1-(2-carbamothioylhydrazono)ethyl)-1-ethyl-4-oxo-1,4-dihydroquinolone-3-carboxamide] | 3.7 µM | > 125 µM | > 125 µM | 187 to 189 °C |  |  | 
CCn1cc(C(=O)NCCNCCO)c(=O)c2cc(/C(C)=N/NC(N)=S)ccc21 [Compound 12, (E)-6-(1-(2-carbamothioylhydrazono)ethyl)-1-ethyl-N-(2-((2-hydroxyethyl)amino)ethyl)-4-oxo-1,4-dihydroquinolone-3-carboxamide] |  | 73.4 µM (≈ 30.7 µg/mL) | 73.4 µM (≈ 30.7 µg/mL) | 183 to 185 °C | not active |  | 
C/C(=N\NC(N)=S)c1ccc2c(c1)c(=O)c(C(=O)NCCNCCO)cn2Cc1ccccc1 [Compound 13, (E)-1-benzyl-6-(1-(2-carbamothioylhydrazono)ethyl)-N-(2-((2-hydroxyethyl)amino)ethyl)-4-oxo-1,4-dihydroquinolone-3-carboxamide] |  | 2.7 µM (≈ 1.3 µg/mL) | 2.7 µM (≈ 1.3 µg/mL) | 197 to 199 °C |  | 4.1 µM | 
C/C(=N\NC(N)=S)c1ccc2c(c1)c(=O)c(C(=O)NCCNCCO)cn2Cc1ccc(Br)cc1 [Compound 14, (E)-1-(4-bromobenzyl)-6-(1-(2-carbamothioylhydrazono)ethyl)-N-(2-((2-hydroxyethyl)amino)ethyl)-4-oxo-1,4-dihydroquinolone-3-carboxamide] |  | 10.3 µM (≈ 5.76 µg/mL) | 10.3 µM (≈ 5.76 µg/mL) | 200 to 202 °C |  | 4 µM | 4.7 µM
C/C(=N\NC(N)=S)c1ccc2c(c1)c(=O)c(C(=O)NCCNCCO)cn2Cc1ccc(C(F)(F)F)cc1 [Compound 15, (E)-6-(1-(2-carbamothioylhydrazono)ethyl)-N-(2-((2-hydroxyethyl)amino)ethyl)-4-oxo-1-(4-(trifluoromethyl)benzyl)-1,4-dihydroquinolone-3-carboxamide] |  | 2 µM (≈ 1.1 µg/mL) |  | 199 to 201 °C |  | 1.2 µM | 
C/C(=N\NC(N)=S)c1ccc2c(c1)c(=O)c(C(=O)NCCNCCO)cn2Cc1ccc(Cl)cc1Cl [Compound 16, (E)-6-(1-(2-carbamothioylhydrazono)ethyl)-1-(2,4-dichlorobenzyl)-N-(2-((2-hydroxyethyl)amino)ethyl)-4-oxo-1,4-dihydroquinolone-3-carboxamide] |  | 4.8 µM (≈ 2.64 µg/mL) | 4.8 µM (≈ 2.64 µg/mL) | 205 to 207 °C |  | 3.1 µM | 
COCCNC(=O)c1cn(Cc2ccccc2)c2ccc(/C(C)=N/NC(N)=S)cc2c1=O [Compound 17, (E)-1-benzyl-6-(1-(2-carbamothioylhydrazono)ethyl)-N-(2-methoxyethyl)-4-oxo-1,4-dihydroquinolone-3-carboxamide] |  | 44.2 µM (≈ 20 µg/mL) | 44.2 µM (≈ 20 µg/mL) | 199 to 200 °C |  | 24.6 µM | 
COCCNC(=O)c1cn(Cc2ccc(Br)cc2)c2ccc(/C(C)=N/NC(N)=S)cc2c1=O [Compound 18, (E)-1-(4-bromobenzyl)-6-(1-(2-carbamothioylhydrazono)ethyl)-N-(2-methoxyethyl)-4-oxo-1,4-dihydroquinolone-3-carboxamide] |  | 15 µM (≈ 7.96 µg/mL) |  | 204 to 206 °C |  | 9.9 µM | 
COCCNC(=O)c1cn(Cc2ccc(Cl)cc2Cl)c2ccc(/C(C)=N/NC(N)=S)cc2c1=O [Compound 19, (E)-6-(1-(2-carbamothioylhydrazono)ethyl)-1-(2,4-dichlorobenzyl)-N-(2-methoxyethyl)-4-oxo-1,4-dihydroquinolone-3-carboxamide] |  | 10.2 µM (≈ 5.31 µg/mL) |  | 209 to 211 °C |  |  | 
CCOC(=O)c1cn(Cc2ccc(Cl)cc2Cl)c2ccc(/C(C)=N/NC(N)=S)cc2c1=O [Compound 21, Ethyl-(E)-6-(1-(2-carbamothioylhydrazono)ethyl)-1-(2,4-dichlorobenzyl)-4-oxo-1,4-dihydroquinolone-3-carboxylate] |  | 31.6 µM (≈ 15.5 µg/mL) | 31.6 µM (≈ 15.5 µg/mL) | 211 to 213 °C |  |  | 
CO[C@H]1/C=C/O[C@@]2(C)Oc3c(C)c(O)c4c(O)c(c(/C=N/N5CCN(C)CC5)c(O)c4c3C2=O)NC(=O)/C(C)=C\C=C\[C@H](C)[C@H](O)[C@@H](C)[C@@H](O)[C@@H](C)[C@H](OC(C)=O)[C@@H]1C [RF, Rifampicin, reference compound] |  | 0.062 µM (≈ 0.051 µg/mL) |  |  |  |  | 
